Experimental data reported in PubChem BioAssay AID602211 (Sanford-Burnham Center for Chemical Genomics, 2012).
Active and inactive are the calls of the source.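 Rule for the calls: active = mean IC50 at or below 10 µM; inactive = the rest.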

Each compound was assayed on H9c2 cardiomyocytes, H2O2 protection, ATPLite viability, 2 h (assay: protection of H9c2 cardiomyocytes from H2O2 death, dose response, cell-based, ATPLite luminescence, set 2 (AID 602211);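 note: potency is for protection so actives keep ATP signal up against peroxide killing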).

Compound	IC50
O=C(NCC(=O)N(Cc1cccs1)C(C(=O)NC1CCCCC1)c1ccco1)c1ccco1 (stereo not drawn)	10.6 µM (inactive)
Cc1ccc2[nH]c(=O)c(CN(Cc3ccco3)S(=O)(=O)c3c(C)ccc4nsnc34)cc2c1	1.32 µM
Cn1c(=O)n(CCc2ccccc2)c(=O)c2c1nc1n2CCN1Cc1ccco1	> 79 µM (inactive)
CCC(CC)C(=O)Nc1cc(C)c2c(=O)oc3ccccc3c2n1	2.05 µM
CCCOc1ccc2[nH]c(C(=O)N/N=C/c3cc(OC)c(OC)c(OC)c3)cc2c1	4.04 µM
COc1ccccc1OP(=O)(Nc1cccnc1)Oc1ccccc1OC	2.28 µM
CCOC(=O)c1c(C)[nH]c(O)c1C=Nc1ccc(Cl)cc1	34.4 µM (inactive)
CN(C)S(=O)(=O)n1cc(/C=C(\NC(=O)c2ccccc2F)C(=O)NCCN2CCOCC2)c2ccccc21	30.8 µM (inactive)
Cc1nn(-c2ccccc2)c(N2CCCC2)c1/C=N/NC(=O)c1cc(-c2ccccn2)nc2ccccc12	7.63 µM
O=C(CCCN1C(=O)c2cccc3cccc(c23)C1=O)N1CCN(c2ccccc2O)CC1	4.54 µM
COc1cc2nc(Nc3ccc(F)cc3)nc(N)c2cc1OC	4.24 µM
O=c1oc2ccc3ccccc3c2cc1-c1nnc(-c2ccccc2)o1	17.5 µM (inactive)
CC(C)CC(C(=O)NC1CCCCC1)N(Cc1cccs1)C(=O)c1snc(C(N)=O)c1N (stereo not drawn)	10.2 µM (inactive)
COC(=O)c1ccccc1NC(=O)/C=C/c1cc(OC)c(OC)c(OC)c1	10.9 µM (inactive)
COc1ccccc1NC(=O)COc1ccc(/C=N/NC(=O)c2cccnc2)cc1	9.9 µM
Cc1nn(-c2ccccc2)nc1C(=O)Nc1cccc(C(=O)NC2CC2)c1	4.37 µM
COc1cc(CCNc2ccc3nnc(-c4ccccc4)n3n2)cc(OC)c1OC	9.52 µM
COc1ccccc1CN(C(=O)CNC(=O)c1ccco1)C(C(=O)NCC1CCCO1)c1ccccc1 (stereo not drawn)	9.67 µM
COc1ccc(-c2cc3nc(C)cc(N4CCN(C(=O)c5ccoc5)CC4)n3n2)cc1	69.1 µM (inactive)
Cc1nc(N2CCN(c3ccccn3)CC2)c2c(C)c(C(=O)Nc3ccccc3F)sc2n1	4.04 µM
COc1cc(Nc2nc3ccccc3n3nnnc23)cc(OC)c1OC	1.38 µM
Cc1c(OCC(=O)NCCN2CCOCC2)ccc2c1oc(=O)c1ccccc12	5.33 µM
COc1cc(/C=C(\C#N)C(=O)Nc2ccccc2)ccc1OCCN1CCOCC1	11.7 µM (inactive)
Cc1ccc(-c2csc(N3CCC[C@@H]3C(=O)NCCn3c(-c4ccncc4)nc4ccccc43)n2)cc1	2.83 µM

Compound	IC50
Cc1cc(NC(=O)c2cccs2)cc(-c2nc3ncccc3o2)c1O	3.76 µM
COc1ccc(-c2cc(NC=O)c3ncc(-c4cccc(C(C)=O)c4)n3c2)cc1	> 79 µM (inactive)
c1ccc(-c2nc(-n3ccnc3)nc(-n3ccnc3)n2)cc1	4.14 µM
COc1ccc(N/C=C(\C#N)c2nc3ccccc3n2C)c(OC)c1	3.73 µM
Cc1ccc(NC(=O)c2nc[nH]c2C(=O)NCCCNC(=O)c2[nH]cnc2C(=O)Nc2ccc(C)cc2)cc1	1.1 µM
CCOCc1c(C(=O)NC2=Nc3ccccc3NC(CC)=C2C(=O)OCC)oc2ccccc12	> 79 µM (inactive)
COc1cc2[nH]c(=O)n3nc(-c4ccccc4)nc3c2cc1OC	11 µM (inactive)
COc1ccc(CC(=O)N(Cc2ccccc2)c2ccccc2)cc1S(=O)(=O)N1CCOCC1	2.24 µM
Cc1ccc(CN(C(=O)CNC(=O)c2cccs2)C(C(=O)NCC2CCCO2)c2ccccc2)cc1 (stereo not drawn)	14.9 µM (inactive)
COc1ccc(OC)c(Nc2nc(N)c([N+](=O)[O-])c(N3CCOCC3)n2)c1	11.8 µM (inactive)
O=C(N/N=C/c1ccccn1)c1ccc(NC(=O)c2cccc([N+](=O)[O-])c2)cc1	7.34 µM
COc1ccc(-c2nn3c(-c4ccco4)nnc3s2)cc1OC	12.3 µM (inactive)
COc1cccc(/C=N/NC(=O)c2ccncc2)c1OC(=O)c1ccc(Br)cc1	15.4 µM (inactive)
CC(=O)c1cccc(-c2cnc3c(NC=O)cc(-c4ccc(F)cc4)cn23)c1	7.76 µM
COc1cc(OC)cc(-c2cc3nc(C)c(CCC(=O)Nc4nc(C)cs4)c(C)n3n2)c1	4.8 µM
COc1cc(NC(=O)c2ccco2)c(OC)cc1NC(=O)c1cc(OC)c(OC)c(OC)c1	11.3 µM (inactive)
O=C(Nc1ccc2c(c1)OCO2)c1cnn2c(C(F)(F)F)cc(-c3ccco3)nc12	2.58 µM
Cc1ccccc1C1c2[nH]c3ccccc3c2C[C@H]2C(=O)N(c3ccccc3C(=O)NCCCN3CCOCC3)C(=O)N12 (stereo partly drawn)	17.2 µM (inactive)
COc1cc(-c2cc(NC=O)c3ncc(-c4ccc(C(C)=O)cc4)n3c2)cc(OC)c1OC	3.51 µM
COc1ccc(Nc2nc(C(=O)N3CCc4cc(OC)c(OC)cc4C3)cs2)cc1	4.29 µM
COc1ccc2cc3cc(C(=O)NCCc4ccc(OC)c(OC)c4)oc3nc2c1	4.28 µM
O=C(Nc1cc(S(=O)(=O)N2CCOCC2)ccc1N1CCCCC1)c1cc(-c2ccccn2)nc2ccccc12	3.38 µM
COc1ccc(C(=O)COC(=O)Cn2[nH]c(=O)c3ccccc3c2=O)c(OC)c1	27.2 µM (inactive)
O=C(CN1C(=O)C2C3C=CC(C3)C2C1=O)Nc1nc(-c2ccccn2)cs1 (stereo not drawn)	21.1 µM (inactive)

Compound	IC50
CC1Nc2ncnc(N3CCN(c4ccccc4)CC3)c2N(Cc2ccc(Br)cc2)C1=O (stereo not drawn)	6.65 µM
NC(=O)c1cc2ccccc2o/c1=N\NC(=O)c1ccc(F)cc1	4.67 µM
O=C(NC1CCCCC1)C(c1ccc2ncccc2c1)N(Cc1ccccc1)C(=O)c1ccc2c(c1)OCCO2 (stereo not drawn)	5.54 µM
Cc1ccc(C(=O)Nc2cccc(C(F)(F)F)c2)cc1NC(=O)c1csc(-c2ccncc2)n1	5.51 µM
CCN(CC)C(=O)c1ccc2c3c(cccc13)C(=O)N(CCc1ccc(OC)c(OC)c1)C2=O	> 79 µM (inactive)
COc1ccc(NC(=O)c2cc3c(=O)n(C)c4ccccc4c3n2C)cc1OC	3.23 µM
Nc1cc2[nH]c(=O)c3ccccc3c2cc1[N+](=O)[O-]	5.96 µM
COc1ccc2c(c1OC)C(=O)N1c3ccccc3C(=O)N(c3ccccc3)C21 (stereo not drawn)	6.9 µM
C[C@@H](NC(=O)c1nc[nH]c1C(=O)NCC(=O)OCc1ccccc1)c1ccccc1	51.6 µM (inactive)
COc1cc(C(=O)NCC(=O)N/N=C/c2ccc(-c3cccc([N+](=O)[O-])c3)o2)cc(OC)c1OC	9.76 µM
COc1ccccc1-c1cc(NC(C)=O)c2ncc(-c3cccc(C(C)=O)c3)n2c1	11.1 µM (inactive)
COC(=O)c1cccc(S(=O)(=O)N(Cc2ccco2)Cc2cc3cc(OC)ccc3[nH]c2=O)c1	42.2 µM (inactive)
COc1cc(C(=O)Nc2cccc(-c3nnc(-c4ccco4)o3)c2)ccc1OC(C)=O	> 79 µM (inactive)
COc1cc(NC(=O)c2cccc3c(-c4cnn(C)c4)coc23)cc(OC)c1OC	1.56 µM
O=C1N[C@H](Cc2ccccc2)COC(=O)[C@@H](Cc2ccc(F)cc2)C/C=C\C[C@H]1CC(=O)N(CCO)Cc1ccccc1	> 79 µM (inactive)
COc1cccc(-c2nn3c(-c4ccccn4)nnc3s2)c1	6.65 µM
CC12CCC3C(CCC4CC(O)CCC43C)C1CC(O)C2 (stereo not drawn)	3.41 µM
O=C(NCc1ccco1)C(c1ccccc1)N(C(=O)Cc1cccs1)c1ccccc1F (stereo not drawn)	3.52 µM
O=C(NCC1CCCO1)C(c1ccc(F)cc1)N(C(=O)Cn1nnc(-c2ccc(F)cc2)n1)c1cccc(O)c1 (stereo not drawn)	4.48 µM
COc1cc(-c2cnc3c(NC=O)cc(-c4cccnc4)cn23)cc(OC)c1OC	24.6 µM (inactive)
CCOC(=O)C1=C(COC(=O)/C=C/c2ccc(F)cc2)NC(=O)NC1C (stereo not drawn)	5.54 µM
CCOC(=O)C1CCCN(C(=O)CCC(=O)Nc2ccc3nc(N4CCOCC4)cc(C)c3c2)C1 (stereo not drawn)	> 79 µM (inactive)
COc1ccccc1N1CCN(C(=O)c2ccc3nc(-c4ccco4)c(-c4ccco4)nc3c2)CC1	7.68 µM
O=C(CSc1nnc(-c2ccccc2)n1Cc1ccccc1)NNC(=O)c1ccccc1O	4.2 µM

Compound	IC50
COc1ccc(-c2cc(-c3ccc(O)cc3)nc(N)c2C#N)cc1OC	> 79 µM (inactive)
CCN(CC(=O)Nc1ccc(OC)cc1)C(=O)c1cc(-c2cccs2)nn1-c1ccccc1	2.06 µM
COc1cccc(/C=N/Nc2nc3ccccc3n3cnnc23)c1	> 79 µM (inactive)
CCn1c(SCC(=O)Nc2ccccc2N2CCCCC2)nc2c1c(=O)n(C)c(=O)n2C	> 79 µM (inactive)
CC(C)C(=O)N1CCN(c2ccc(NC(=O)COc3ccccc3[N+](=O)[O-])cc2)CC1	1.07 µM
Cc1ccc(C=NNc2nc3c([nH]2)c(=O)n(C)c(=O)n3C)cc1	3.93 µM
O=C(Nc1ccccc1)c1nc[nH]c1C(=O)NCCCCCCNC(=O)c1[nH]cnc1C(=O)Nc1ccccc1	5.52 µM
CCC1(CC)NC(=O)N(CC(=O)OCC(=O)Nc2ccccc2[N+](=O)[O-])C1=O	37.3 µM (inactive)
CCOC(=O)N1CCN(C(=O)CSc2nc3ccccc3c(=O)n2-c2ccccc2)CC1	18.8 µM (inactive)
COc1ccc(CCNc2nc(-c3cccnc3)nc3ccccc23)cc1OC	2.28 µM
O=C(C[C@H]1C/C=C\CC[C@H](Cc2ccc(F)cc2)C(=O)O[C@H](c2ccccc2)CNC1=O)N[C@H](CO)Cc1ccccc1	> 79 µM (inactive)
COc1cc(CN2C[C@@H](CO)O[C@@H](n3cnc4c(Nc5ccccc5)ncnc43)C2)cc(OC)c1OC	10.6 µM (inactive)
O=C(NCCN1CCN(c2ccccc2F)CC1)c1cccn2c(=O)c3ccccc3nc12	7.34 µM
COc1ccc(-c2ccc3[nH]c4c(c3c2)CCN2C[C@H]3[C@H](C)ON(C)[C@H]3C[C@@H]42)cc1	> 79 µM (inactive)
CC(=O)Nc1ccc(NS(=O)(=O)c2cc(-c3n[nH]c(=O)c4ccccc34)ccc2C)cc1	3.65 µM
Cc1ccccc1C(C(=O)NCc1ccccc1)N(Cc1ccco1)C(=O)c1ccccn1 (stereo not drawn)	> 79 µM (inactive)
COc1ccc2[nH]c(=O)c(CN(Cc3cccnc3)S(=O)(=O)c3ccccc3F)cc2c1	0.43 µM
CCN1C(=O)/C(=C/c2nc3ccccc3c(=O)[nH]2)c2ccccc21	7.84 µM
CC(C)(C)OC(=O)NCc1ccc(NC(=O)c2nc[nH]c2C(=O)NCCCCCCNC(=O)c2[nH]cnc2C(=O)Nc2ccc(CNC(=O)OC(C)(C)C)cc2)cc1	> 79 µM (inactive)
CC(=O)Nc1cccc(-c2cc(NC(C)=O)c3ncc(-c4ccccc4)n3c2)c1	13.7 µM (inactive)
CC(=O)Nc1cccc(NC(=O)c2cc(-c3cccnc3)nc3ccc(Cl)cc23)c1	2.24 µM
